One experiment concerns the target T1, CYP11A1 (Homo sapiens, UniProt P05108).
T1 construct: host or cells: V79-4 cells (Chinese hamster), transient transfection, mitochondrial fraction
T1 sequence (P05108 40-521): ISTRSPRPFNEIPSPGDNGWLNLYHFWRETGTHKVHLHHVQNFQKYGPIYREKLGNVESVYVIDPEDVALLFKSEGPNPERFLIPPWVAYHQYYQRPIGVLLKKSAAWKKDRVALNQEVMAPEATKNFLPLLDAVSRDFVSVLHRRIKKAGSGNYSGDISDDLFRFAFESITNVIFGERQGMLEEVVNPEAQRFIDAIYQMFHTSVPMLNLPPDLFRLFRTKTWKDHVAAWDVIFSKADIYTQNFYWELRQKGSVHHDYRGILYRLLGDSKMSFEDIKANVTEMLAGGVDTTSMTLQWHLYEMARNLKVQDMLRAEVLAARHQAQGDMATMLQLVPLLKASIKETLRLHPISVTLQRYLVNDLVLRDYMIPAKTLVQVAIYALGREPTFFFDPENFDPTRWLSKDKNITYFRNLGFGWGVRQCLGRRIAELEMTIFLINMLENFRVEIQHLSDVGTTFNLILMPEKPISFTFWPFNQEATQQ
The experiment is described as follows: CYP11A1 assay based on mitochondrial fraction of V79-4 cells. The format is biochemical. To be noted: 10 µM, 20S-hydroxycholesterol 2 µM, 4 h, qualitative, assay of low sensitivity. The procedure: Mitochondria were prepared as described previously with modifications ([Frezza et al., 2007]). Briefly, V79-4 cells (3,000,000) were seeded 4 h prior to transfection with 4 µg of expression plasmid for CYP11A1 and adrenodoxin (GeneScript Piscataway, USA, clone IDs OHu18602D and OHu55929D) using polyethylemine (PEI) in a PEI/DNA ratio of 3:1 (w/w). At 4 h post-transfection, medium was changed and cells were incubated overnight. Cells were collected in ice cold phosphate buffered saline (PBS) and centrifuged at 600 × g for 10 min at 4 °C. The pellet was resuspended in ice cold isolation buffer (10 mM Tris/MOPS, pH 7.4, 1 mM EGTA/Tris, pH 7.4, 200 mM sucrose in water) and transferred to a glass potter, followed by 35 S using a 2 cm^3 glass Teflon pestle. The homogenate was centrifuged for 10 min at 600 × g and 4 °C. The supernatant was collected and centrifuged for 10 min at 7000 × g at 4 °C. The pellet was washed and resuspended in 200 μL ice cold isolation buffer. After centrifugation, the pellet containing the mitochondrial fraction was resuspended in 30 μL reaction buffer (25 mM HEPES pH 7.4, 0.1 mM DTT, 0.1 mM EDTA, 4 mM MgCl2) and the protein content was determined by the BCA assay according to the manufacturer (Pierce BCA protein assay kit, Thermo Scientific, Rockford, USA). Bovine serum albumin provided with the kit was used as reference protein and absorbance was measured using a BioTek Cytation5 Imaging Reader (Agilent BioTek).
For the CYP11A1 activity assay, 500 µg/mL of freshly prepared mitochondrial fraction were pre-incubated on ice with reaction buffer, 1 mM NADPH and either vehicle (0.1% DMSO), 10 µM of the positive control ketoconazole ([Mast et al., 2013]) or the triazole antifungals for 10 min. The reaction was started by adding the substrate 20S-hydroxycholesterol at a final concentration of 2 µM in a reaction volume of 50 µL. After 4 h of incubation at 37 °C, the reaction was stopped by adding 50 µL methanol and shock-freezing in liquid nitrogen. Samples were stored at −80 °C until sample preparation for pregnenolone detection using an ELISA kit (Alpco, Salem, USA). Sample preparation included evaporation of samples to dryness, reconstitution in 6 µL methanol and 1:25 (v:v) dilution in water. The ELISA was performed according to the manufacturer and absorbance was measured using a BioTek Citation5 imaging reader.

Another experiment addresses T2, CYP17A1 17,20-lyase (Homo sapiens, UniProt P05093).
T2 construct: expressed in transfected cells; host or cells: COS-1 cells, transient transfection, microsomal fraction
T2 sequence (P05093 1-508): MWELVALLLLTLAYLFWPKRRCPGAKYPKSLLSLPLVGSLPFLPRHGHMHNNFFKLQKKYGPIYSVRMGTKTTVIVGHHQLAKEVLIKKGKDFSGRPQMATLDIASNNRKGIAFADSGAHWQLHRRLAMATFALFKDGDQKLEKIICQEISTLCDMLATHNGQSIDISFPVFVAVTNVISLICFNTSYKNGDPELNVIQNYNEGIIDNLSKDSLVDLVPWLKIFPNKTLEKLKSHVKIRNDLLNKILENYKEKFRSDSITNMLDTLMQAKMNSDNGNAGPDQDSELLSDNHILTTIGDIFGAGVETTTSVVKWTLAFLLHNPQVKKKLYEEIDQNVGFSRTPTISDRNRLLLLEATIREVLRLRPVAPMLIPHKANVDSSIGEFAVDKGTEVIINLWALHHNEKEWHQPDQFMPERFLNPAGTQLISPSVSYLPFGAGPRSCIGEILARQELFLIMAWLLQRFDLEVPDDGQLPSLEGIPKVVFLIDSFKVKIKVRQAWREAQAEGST
The experiment is described as follows: CYP17A1 17,20-lyase activity assay, microsomes of transfected COS-1 cells. The format is biochemical. To be noted: for IC50: 17α-hydroxypregnenolone 500 nM, 1 h; for lower inhibitory potency against 17,20-lyase than posaconazole: relative to posaconazole. Here is the method:
Microsomes were prepared from COS-1 cells transiently transfected with plasmids for either CYP17A1 and POR for CYP17A1-hydroxylase assay (human CYP17A1 was available in our own plasmid collection after cloning into pcDNA3, POR was ordered from Genescript, Piscataway, USA, clone ID OHu25584C), CYP17A1, POR and cytochrome b5 for CYP17A1 17,20-lyase assay (cytochrome b5 was from Genescript, clone ID OHu09495D), POR and CYP21A2 (Genescript, CYP21A2 clone ID OHu18602D), or 3β-HSD2 (Genescript, clone ID OHu14034D). Transfection was performed using PEI and equal amounts of required plasmids with a total DNA amount of 8 µg per transfection of 3,000,000 cells. After overnight incubation, cells were washed with prewarmed PBS before adding ice-cold PBS. Cells were collected and centrifuged at 600 × g for 4 min at 4 °C, washed with ice cold PBS and centrifuged again. The pellet was resuspended in a resuspension buffer (20 mM Tris, pH 7.5, 50 mM KCl, 2 mM MgCl2, 0.25 M sucrose). Cells were disrupted with 30 S by a glass potter (2 cm^3) as described above. The homogenate was centrifuged for 20 min at 12,000 × g and 4 °C. Microsomes were pelleted by ultracentrifugation at 100,000 × g for 1 h at 4 °C. The pellet was resuspended in reaction buffer and the protein concentration determined using the Pierce Protein BCA kit as described above.
Microsomes, 250 µg/mL, expressing CYP17A1, POR and cytochrome b5 were incubated in reaction buffer for 10 min with 1 mM NADPH and the azole antifungals. The reaction was started by adding 500 nM 17α-hydroxypregnenolone in a total reaction volume of 50 µL. After 1 h of incubation at 37 °C, the reaction was stopped adding 50 µL methanol. Samples were evaporated to dryness, reconstituted in 6 µL methanol, diluted 1:25 in water and the DHEA concentration was quantified using an ELISA kit (DEH3344, Demeditec, Kiel, Germany). Absorbance was measured using a BioTek Citation5 imaging reader.

Each structure is given as a SMILES string.

Usually IC50 stands for the concentration needed to halve the response being measured. The low end stands for higher potency, the high end for lower potency. Turning to `CC[C@@H]([C@H](C)O)n1ncn(-c2ccc(N3CCN(c4ccc(OC[C@@H]5CO[C@@](Cn6cncn6)(c6ccc(F)cc6F)C5)cc4)CC3)cc2)c1=O` [posaconazole, Posaconazole], the “inhibition of CYP11A1 activity” value against CYP11A1 is “very weak inhibitory activity”. The compound also showed a half-maximal inhibitory concentration (IC50) against CYP17A1 17,20-lyase (cell-free) of 0.28 µM. At CYP17A1 17,20-lyase (cell-free, in words), the “inhibition of CYP17A1 17,20-lyase” value is “potently inhibited”. The “preference for 17,20-lyase over the 17α-hydroxylase activity” value on CYP17A1 17,20-lyase (ratio of IC50 values) was “four-fold preference”.

As for `CCC(C)n1ncn(-c2ccc(N3CCN(c4ccc(OCC5COC(Cn6cncn6)(c6ccc(Cl)cc6Cl)O5)cc4)CC3)cc2)c1=O` (stereo not shown) [itraconazole], at CYP11A1, the “inhibition of CYP11A1 activity” value was “very weak inhibitory activity”. At CYP17A1 17,20-lyase (cell-free), inhibition was half-maximal at 5.76 µM (IC50). Further, the “lower inhibitory potency against 17,20-lyase than posaconazole” value at CYP17A1 17,20-lyase came to 20 times.

On to `C[C@@H](c1nc(-c2ccc(C#N)cc2)cs1)[C@](O)(Cn1cncn1)c1cc(F)ccc1F` [isavuconazole], for which the “inhibition of CYP11A1 activity” value against CYP11A1 was “comparable to ketoconazole”. This compound also yielded an IC50 on CYP17A1 17,20-lyase (cell-free) of 5.71 µM. Besides, on CYP17A1 17,20-lyase, the “lower inhibitory potency against 17,20-lyase than posaconazole” value is on record as 20 times.
